Among the data in US8222247B2, “Modulators of glucocorticoid receptor, AP-1, and/or NF-kappabeta activity and use thereof” (Bristol-Myers Squibb Company, priority 2006, dated 2012) are Ki values, retold here.

This test has as its target T1, human glucocorticoid receptor (Homo sapiens, UniProt P04150).
T1 construct: purified human recombinant full-length glucocorticoid receptor (2 nM); purchased Invitrogen Part #2893
T1 sequence (P04150 1-777): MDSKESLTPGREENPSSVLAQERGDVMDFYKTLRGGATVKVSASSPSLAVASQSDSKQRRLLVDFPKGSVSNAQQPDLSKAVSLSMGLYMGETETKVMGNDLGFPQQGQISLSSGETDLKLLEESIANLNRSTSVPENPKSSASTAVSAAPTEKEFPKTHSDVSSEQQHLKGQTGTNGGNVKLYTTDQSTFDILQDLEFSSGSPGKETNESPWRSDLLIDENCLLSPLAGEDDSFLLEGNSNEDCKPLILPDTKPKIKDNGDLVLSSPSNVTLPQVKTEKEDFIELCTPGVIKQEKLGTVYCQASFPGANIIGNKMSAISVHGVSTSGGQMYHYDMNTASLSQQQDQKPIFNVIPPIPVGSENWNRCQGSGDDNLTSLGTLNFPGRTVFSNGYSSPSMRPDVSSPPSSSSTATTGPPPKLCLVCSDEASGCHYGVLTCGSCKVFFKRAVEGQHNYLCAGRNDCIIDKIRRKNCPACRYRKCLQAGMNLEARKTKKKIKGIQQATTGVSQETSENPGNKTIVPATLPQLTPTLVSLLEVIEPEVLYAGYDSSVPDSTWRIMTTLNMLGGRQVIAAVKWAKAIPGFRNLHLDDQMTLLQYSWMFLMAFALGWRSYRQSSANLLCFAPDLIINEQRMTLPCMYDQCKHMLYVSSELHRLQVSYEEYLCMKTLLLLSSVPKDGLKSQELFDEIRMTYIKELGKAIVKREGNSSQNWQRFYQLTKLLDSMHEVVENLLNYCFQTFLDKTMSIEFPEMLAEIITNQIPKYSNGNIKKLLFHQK
Briefly: Glucocorticoid Receptor Binding Assay (I), fluorescence polarization competitor kit. As to conditions: purified human recombinant full-length GR, Fluormone GS Red. How it is done:
Glucocorticoid Receptor Binding Assay (I)^a
In order to assess the affinity of test compounds for the human glucocorticoid receptor, a commercially available kit was used (Glucocorticoid Receptor Competitor Assay Kit, Invitrogen Part #2893). Briefly, purified human recombinant full-length glucocorticoid receptor (2 nM) was mixed with fluorescently labeled glucocorticoid (1 nM Fluormone GS Red) in the presence or absence of test compound. After two hour incubation at room temperature in the dark, the fluorescence polarization (FP) of the samples was measured. The FP of a mixture of receptor, fluorescent probe (i.e. Fluormone GS Red) and 5 μM dexamethasone represented background fluorescence or 100% inhibition, whereas, the FP of the mixture without dexamethasone (but in the presence of vehicle) was taken to be 100% binding. The percentage inhibition of test compounds were then compared to the sample with 5 μM dexamethasone and expressed as % relative binding activity with dexamethasone being 100% and no inhibition is 0%. Test compounds were analyzed in the concentration range from 8.5E-05 μM to 5 μM.
Consider `CC(C(=O)Nc1nncs1)C(c1ccccc1)c1ccc(Br)s1` (single isomer, unassigned) [Example 135, 3-(5-bromo-2-thienyl)-2-methyl-3-phenyl-N-1,3,4-thiadiazol-2-ylpropanamide], for which the Ki came out at 1.25 nM.

For the compound `CC(C(=O)Nc1nncs1)C(c1ccccc1)c1ccc(-c2ccc(C(=O)N(C)C)cc2)s1` (single isomer, unassigned) [Example 138, N,N-dimethyl-4-(5-(2-methyl-3-oxo-1-phenyl-3-(1,3,4-thiadiazol-2-ylamino)propyl)-2-thienyl)benzamide], the Ki worked out at 360 nM.

Take `CC(C(=O)Nc1nncs1)C(c1ccccc1)c1ccc(-c2ccc(C(=O)N(C)C)cc2)s1` (single isomer, unassigned) [Example 139, N,N-dimethyl-4-(5-(2-methyl-3-oxo-1-phenyl-3-(1,3,4-thiadiazol-2-ylamino)propyl)-2-thienyl)benzamide]: the Ki stood at 259 nM.

`C[C@@H](C(=O)Nc1nncs1)[C@H](c1ccccc1)c1ccc(-c2ccc(C(=O)N3CCOCC3)cc2)s1` (stereo in doubt) [Example 152, (2R,3R)-2-methyl-3-(5-(4-(4-morpholinylcarbonyl)phenyl)-2-thienyl)-3-phenyl-N-1,3,4-thiadiazol-2-ylpropanamide]: the Ki was 4.85 nM.

Take `CCN(C)C(=O)c1ccc(-c2ccc([C@@H](c3ccccc3)[C@@H](C)C(=O)Nc3nncs3)s2)cc1` (stereo in doubt) [Example 154, N-ethyl-N-methyl-4-(5-((1R,2R)-2-methyl-3-oxo-1-phenyl-3-(1,3,4-thiadiazol-2-ylamino)propyl)-2-thienyl)benzamide]: the Ki is 2.15 nM.

For the compound `CC(C)(C(=O)Nc1nncs1)C(c1ccccc1)c1ccc(Br)s1` (centres unmarked) [Example 3, -(5-bromo-2-thienyl)-2,2-dimethyl-3-phenyl-N-1,3,4-thiadiazol-2-ylpropanamide], the Ki was determined as 3.66 nM.

As to `CC(C)(C(=O)Nc1nccs1)C(c1ccccc1)c1ccc(Br)s1` (centres unmarked) [Example 4, 3-(5-bromo-2-thienyl)-2,2-dimethyl-3-phenyl-N-1,3-thiazol-2-ylpropanamide], the inhibitory constant (Ki) is 6.97 nM.

For `CC(C)(C(=O)Nc1nncs1)C(c1cc(F)cc(F)c1)c1ccc(Br)s1` (centres unmarked) [Example 19, 3-(5-bromo-2-thienyl)-3-(3,5-difluorophenyl)-2,2-dimethyl-N-1,3,4-thiadiazol-2-ylpropanamide], the Ki worked out at 2.93 nM.

For `CC(C)Oc1ccc(-c2ccc(C(c3ccccc3)C(C)(C)C(=O)Nc3nncs3)cn2)cc1F` (centres unmarked) [Example 29, 3-(6-(3-fluoro-4-isopropoxyphenyl)-3-pyridinyl)-2,2-dimethyl-3-phenyl-N-1,3,4-thiadiazol-2-ylpropanamide], the Ki worked out at 7.69 nM.

In the case of `COc1ccc(-c2ccc(C(c3cccc(F)c3)C(C)(C)C(=O)Nc3nncs3)s2)cc1` (centres unmarked) [Example 35, 3-(3-fluorophenyl)-3-(5-(4-methoxyphenyl)-2-thienyl)-2,2-dimethyl-N-1,3,4-thiadiazol-2-ylpropanamide], the Ki is 5.75 nM.

Regarding `CN(C)C(=O)c1ccc(-c2ccc(C(c3cccc(F)c3)C(C)(C)C(=O)Nc3nncs3)s2)cc1` (centres unmarked) [Example 36, 4-(5-(1-(3-fluorophenyl)-2,2-dimethyl-3-oxo-3-(1,3,4-thiadiazol-2-ylamino)propyl)-2-thienyl)-N,N-dimethylbenzamide], the Ki is 1.46 nM.

For the compound `CC(C)Oc1ccc(-c2ccc(C(c3cccc(F)c3)C(C)(C)C(=O)Nc3nncs3)s2)cc1F` (centres unmarked) [Example 37, 3-(5-(3-fluoro-4-isopropoxyphenyl)-2-thienyl)-3-(3-fluorophenyl)-2,2-dimethyl-N-1,3,4-thiadiazol-2-ylpropanamide], the Ki is 53.5 nM.

As to `CN(C)C(=O)c1ccc(-c2ccc(C(c3ccccc3)C(C)(C)C(=O)Nc3nncs3)s2)cc1` (centres unmarked) [Example 44, 4-(5-(2,2-dimethyl-3-oxo-1-phenyl-3-(1,3,4-thiadiazol-2-ylamino)propyl)-2-thienyl)-N,N-dimethylbenzamide], the Ki was 0.89 nM.

Take `CC(C)(C(=O)Nc1nncs1)C(c1ccccc1)c1ccc(-c2ccc(C(=O)N3CCCCC3)cc2)s1` (centres unmarked) [Example 46, 2,2-dimethyl-3-phenyl-3-(5-(4-(1-piperidinylcarbonyl)phenyl)-2-thienyl)-N-1,3,4-thiadiazol-2-ylpropanamide]: the Ki is 11.7 nM.

In the case of `CCN(CC)C(=O)c1ccc(-c2ccc(C(c3ccccc3)C(C)(C)C(=O)Nc3nncs3)s2)cc1Cl` (centres unmarked) [Example 48, 2-chloro-4-(5-(2,2-dimethyl-3-oxo-1-phenyl-3-(1,3,4-thiadiazol-2-ylamino)propyl)-2-thienyl)-N,N-diethylbenzamide], the Ki worked out at 17.4 nM.

As for `CCN(CC)C(=O)c1ccc(-c2ccc(C(c3ccccc3)C(C)(C)C(=O)Nc3nncs3)s2)cc1` (centres unmarked) [Example 49, 4-(5-(2,2-dimethyl-3-oxo-1-phenyl-3-(1,3,4-thiadiazol-2-ylamino)propyl)-2-thienyl)-N,N-diethylbenzamide], the inhibition constant (Ki) turned out to be 3.58 nM.

`CCCN(CCC)C(=O)c1ccc(-c2ccc(C(c3ccccc3)C(C)(C)C(=O)Nc3nncs3)s2)cc1` (centres unmarked) [Example 51, 4-(5-(2,2-dimethyl-3-oxo-1-phenyl-3-(1,3,4-thiadiazol-2-ylamino)propyl)-2-thienyl)-N,N-dipropylbenzamide]: the Ki was 79.7 nM.

Take `COC(=O)c1ccc(-c2ccc(C(c3ccccc3)C(C)(C)C(=O)Nc3nncs3)s2)cc1F` (centres unmarked) [Example 53, methyl 4-(5-(2,2-dimethyl-3-oxo-1-phenyl-3-(1,3,4-thiadiazol-2-ylamino)propyl)-2-thienyl)-2-fluorobenzoate]: the Ki came out at 152 nM.

`CC(C)(C(=O)Nc1nncs1)C(c1ccccc1)c1ccc(-c2ccc(C(=O)N3CCC(F)(F)CC3)cc2)s1` (centres unmarked) [Example 55, 3-(5-(4-((4,4-Difluoro-1-piperidinyl)carbonyl)phenyl)-2-thienyl)-2,2-dimethyl-3-phenyl-N-1,3,4-thiadiazol-2-ylpropanamide]: the inhibitory constant (Ki) worked out at 36.8 nM.

With `CC(C)(C(=O)Nc1nncs1)[C@H](c1cccc(F)c1)c1ccc(Br)s1` [Example 56, (3S)-3-(5-bromo-2-thienyl)-3-(3-fluorophenyl)-2,2-dimethyl-N-1,3,4-thiadiazol-2-ylpropanamide], the Ki is 1.21 nM.

For `CC(C)(C(=O)Nc1nncs1)[C@@H](c1cccc(F)c1)c1ccc(Br)s1` [Example 57, (3R)-3-(5-bromo-2-thienyl)-3-(3-fluorophenyl)-2,2-dimethyl-N-1,3,4-thiadiazol-2-ylpropanamide], the inhibitory constant (Ki) was determined as 2.39 nM.

As to `CN(C)C(=O)c1ccc(-c2ccc([C@@H](c3cccc(F)c3)C(C)(C)C(=O)Nc3nncs3)s2)cc1` [Example 58, 4-(5-((1S)-1-(3-fluorophenyl)-2,2-dimethyl-3-oxo-3-(1,3,4-thiadiazol-2-ylamino)propyl)-2-thienyl)-N,N-dimethylbenzamide], the Ki came to 29.2 nM.

As to `CC(C)(C(=O)Nc1nncs1)[C@H](c1cccc(F)c1)c1ccc(-c2ccc(C(=O)N3CCOCC3)cc2)s1` [Example 59, (3S)-3-(3-fluorophenyl)-2,2-dimethyl-3-(5-(4-(4-morpholinylcarbonyl)phenyl)-2-thienyl)-N-1,3,4-thiadiazol-2-ylpropanamide], the Ki came out at 66.9 nM.

Consider `CN(C)C(=O)c1ccc(-c2ccc([C@@H](c3cccc(F)c3)C(C)(C)C(=O)Nc3nncs3)s2)cc1Cl` [Example 60, 2-chloro-4-(5-((1S)-1-(3-fluorophenyl)-2,2-dimethyl-3-oxo-3-(1,3,4-thiadiazol-2-ylamino)propyl)-2-thienyl)-N,N-dimethylbenzamide], for which the Ki was determined as 161 nM.

As for `CC(C)(C(=O)Nc1nncs1)[C@H](c1cccc(F)c1)c1ccc(-c2ccc(C(=O)N3CCOCC3)c(Cl)c2)s1` [Example 61, (3S)-3-(5-(3-chloro-4-(4-morpholinylcarbonyl)phenyl)-2-thienyl)-3-(3-fluorophenyl)-2,2-dimethyl-N-1,3,4-thiadiazol-2-ylpropanamide], the Ki stood at 101 nM.

With `CCN(C)C(=O)c1ccc(-c2ccc([C@@H](c3cccc(F)c3)C(C)(C)C(=O)Nc3nncs3)s2)cc1` [Example 62, N-ethyl-4-(5-((1S)-1-(3-fluorophenyl)-2,2-dimethyl-3-oxo-3-(1,3,4-thiadiazol-2-ylamino)propyl)-2-thienyl)-N-methylbenzamide], the inhibition constant Ki was found to be 87.6 nM.
